{
  "source": "patent US20160095343A1",
  "about": "“Synbiotic Product” (Tate & Lyle Ingredients Americas LLC, priority 2010, published 2016)",
  "format_in_all_cases": "cell-based",
  "key": {"[1]": {"test_system": "B. coagulans", "assay": "Growth of probiotic Bacillus on prebiotic carbohydrates (Example 1)", "conditions": "carbohydrate at 10 g/L", "procedure": "(§1) Four commercial spore-forming probiotic Bacillus strains were grown on prebiotic carbohydrates at 10 g/L. (See FIG. 1). The four strains were B. pumilus, B. licheniformis, B. subtilis, and B. coagulans. The prebiotic carbohydrates were high molecular weight arabinoxylan (AX), xylose (X), soluble fiber dextrin (waxy) (SFDw), soluble corn fiber (85) (SCF), and polydextrose (PDX). As a measure of the significance of the data shown in FIG. 1, Table 1 indicates P values for the B. coagulans data."}, "[2]": {"test_system": "B. licheniformis", "assay": "Growth of probiotic Bacillus on prebiotic carbohydrates (Example 1)", "conditions": "carbohydrate at 10 g/L", "procedure": "as §1"}, "[3]": {"test_system": "B. pumilus", "assay": "Growth of probiotic Bacillus on prebiotic carbohydrates (Example 1)", "conditions": "carbohydrate at 10 g/L", "procedure": "as §1"}, "[4]": {"test_system": "B. subtilis", "assay": "Growth of probiotic Bacillus on prebiotic carbohydrates (Example 1)", "conditions": "carbohydrate at 10 g/L", "procedure": "as §1"}, "[5]": {"test_system": "B. coagulans strain GBI-30", "assay": "Comparison of maximum growth of B. coagulans on various carbohydrates (Example 2)", "conditions": "carbohydrate at ~10 g/L, against no added carbohydrates", "from_the_text": "The maximum growth of probiotic B. coagulans strain GBI-30 (ATCC Designation Number PTA-6086; U.S. Pat. No. 6,849,256) (Ganeden Biotech, Inc.; Mayfield Heights, Ohio) was compared on the carbohydrates arabinoxylan, xylose, and dextrose at ˜10 g/L and against addition of no carbohydrates (FIG. 2)."}},
  "data": [
    {"smiles": "O=C[C@H](O)[C@@H](O)[C@H](O)CO", "note": "[xylose]", "values": [
      {"measurement": "growth of B. coagulans on the prebiotic carbohydrate", "setting": "[1]", "result": "grew"},
      {"measurement": "growth of B. licheniformis on the prebiotic carbohydrate", "setting": "[2]", "result": "limited growth"},
      {"measurement": "growth of B. pumilus on the prebiotic carbohydrate", "setting": "[3]", "result": "did not appear able to grow"},
      {"measurement": "growth of B. subtilis on the prebiotic carbohydrate", "setting": "[4]", "result": "grew"},
      {"measurement": "maximum growth of B. coagulans strain GBI-30 on the carbohydrate", "setting": "[5]", "result": "strong growth"}
    ]}
  ]
}
